Measurements published in patent US20090062189A1, “TUMOR SUPPRESSOR PROTEIN AND NUCLEOTIDE ENCODING SAME” (priority 2006, published 2009).

T1: PDZ domain-containing protein 2 (PDZD2), full-length, human (human) (UniProt O15018)
T1 sequence: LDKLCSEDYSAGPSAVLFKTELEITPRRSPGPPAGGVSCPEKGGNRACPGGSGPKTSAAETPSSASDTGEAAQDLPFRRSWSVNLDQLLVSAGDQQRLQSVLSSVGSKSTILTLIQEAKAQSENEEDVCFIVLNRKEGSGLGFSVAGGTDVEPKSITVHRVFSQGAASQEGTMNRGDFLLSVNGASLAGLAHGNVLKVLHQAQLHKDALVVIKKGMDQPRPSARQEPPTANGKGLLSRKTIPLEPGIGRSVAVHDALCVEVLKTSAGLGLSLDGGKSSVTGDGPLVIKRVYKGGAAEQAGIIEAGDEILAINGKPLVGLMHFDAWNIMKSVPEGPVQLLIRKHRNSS

B1: caspase-3 (enzyme, human, UniProt P42574 29-277, looked up)
chain: SGISLDNSYKMDYPEMGLCIIINNKNFHKSTGMTSRSGTDVDAANLRETFRNLKYEVRNKNDLTREEIVELMRDVSKEDHSKRSSFVCVLLSHGEEGIIFGTNGPVDLKKITNFFRGDRCRSLTGKPKLFIIQACRGTELDCGIETDSGVDDDMACHKIPVEADFLYAYSTAPGYYSWRNSKDGSWFIQSLCAMLKQYADKLEFMHILTRVNRKVATEFESFSFDATFHAKKQIPCIVSMLTKELYFYH

What was measured:
DU145 cells = test: Immunoblotting of PDZD2 in cell lysates and sPDZD2 in conditioned media with anti-PDZD2 antibody; type: cell-based, human; details: 10 μM Z-DEVD-FMK, 48 hours, compared to Z-FA-FMK-treated cells
Excerpt: (§1) Given that cleavage of pro-IL-16 to form the corresponding secretory IL-16 cytokine is mediated by caspase-3, we tested whether or not proteolytic cleavage of full-length PDZD2 to its secreted protein sPDZD2 is caspase-3-dependent in human prostate, breast and liver cancer cells. Human prostate cancer cell lines LNCaP.FGC (CRL-1740), DUI45 (HTB-81), PC-3 (CRL-1435), and 22Rv1 (CRL-2505), breast adenocarcinoma cell line MCF-7 (HTB-22), and hepatocellular carcinoma cell line Hep-G2 (HB-8065) were obtained from American Type Culture Collection. […] Cell lysates in sample buffer (0.2% SDS, 10% glycerol, 0.06 M Tris-HCl (pH 6.8), 100 mM DTT, and 0.01% bromophenol blue) were heated at 95° C. for 5 min. Proteins in the conditioned media were concentrated by 50-fold using YM-10 Centricons (Millipore). Samples (10 μg) were resolved by SDS-PAGE and electroblotted to PVDF membranes (Millipore). The blots were blocked with 5% non-fat milk powder in TBS-T for 1 hour at room temperature and then incubated with rabbit anti-PDZD2 antibody (1: 10,000 dilution) overnight at 4° C. After washing with TBS-T, the blots were incubated with secondary antibodies against rabbit immunoglobulin G (ZYMED Laboratories). Blots were stripped in 25 mM glycine buffer (pH 2.0) for 30 min for re-probing with α-tubulin (1:500 dilution, Santa Cruz Biotechnology). The signals were visualized by enhanced chemiluminescence Western blotting system (Amersham Biosciences) and densitometric scannings of films of the developed blot normalized against α-tubulin were determined.

PC-3 cells = test: as above; type: cell-based, human; details: 10 μM Z-DEVD-FMK, 48 hours, compared to Z-FA-FMK-treated cells
Excerpt: as §1

22Rv1 cells = test: as above; type: cell-based, human; details: 10 μM Z-DEVD-FMK, 48 hours, compared to Z-FA-FMK-treated cells
Excerpt: as §1

Hep-G2 cells = test: as above; type: cell-based, human; details: 10 μM Z-DEVD-FMK, 48 hours, compared to Z-FA-FMK-treated cells
Excerpt: as §1

MCF-7 cells = test: as above; type: cell-based, human; details: 10 μM Z-DEVD-FMK, 48 hours, compared to Z-FA-FMK-treated cells
Excerpt: as §1

[1] = target: T1, PDZ domain-containing protein 2 (PDZD2), full-length, human (human); test: cell-based or functional assay

Molecule | increase of PDZD2 expression (DU145 cells) | reduction of sPDZD2 secretion into conditioned media (DU145 cells; serum-free) | increase of PDZD2 expression (PC-3 cells) | reduction of sPDZD2 secretion into conditioned media (PC-3 cells; serum-free) | increase of PDZD2 expression (22Rv1 cells) | reduction of sPDZD2 secretion into conditioned media (22Rv1 cells; serum-free) | increase of PDZD2 expression (Hep-G2 cells) | reduction of sPDZD2 secretion into conditioned media (Hep-G2 cells; serum-free) | increase of PDZD2 expression (MCF-7 cells) | reduction of sPDZD2 secretion into conditioned media (MCF-7 cells; serum-free) | increase of full-length PDZD2 in cell lysate, 22Rv1 cells, 10 µM Z-DEVD-FMK 48 h vs Z-FA-FMK [1] | increase of full-length PDZD2 in cell lysate, DU145 cells, 10 µM Z-DEVD-FMK 48 h vs Z-FA-FMK [1] | increase of full-length PDZD2 in cell lysate, Hep-G2 cells, 10 µM Z-DEVD-FMK 48 h vs Z-FA-FMK [1] | increase of full-length PDZD2 in cell lysate, MCF-7 cells, 10 µM Z-DEVD-FMK 48 h vs Z-FA-FMK [1] | increase of full-length PDZD2 in cell lysate, PC-3 cells, 10 µM Z-DEVD-FMK 48 h vs Z-FA-FMK [1] | reduction of sPDZD2 secretion into conditioned medium, 22Rv1 cells, 10 µM Z-DEVD-FMK 48 h vs Z-FA-FMK [1] | reduction of sPDZD2 secretion into conditioned medium, DU145 cells, 10 µM Z-DEVD-FMK 48 h vs Z-FA-FMK [1] | reduction of sPDZD2 secretion into conditioned medium, Hep-G2 cells, 10 µM Z-DEVD-FMK 48 h vs Z-FA-FMK [1] | reduction of sPDZD2 secretion into conditioned medium, MCF-7 cells, 10 µM Z-DEVD-FMK 48 h vs Z-FA-FMK [1] | reduction of sPDZD2 secretion into conditioned medium, PC-3 cells, 10 µM Z-DEVD-FMK 48 h vs Z-FA-FMK [1]
Z-DEVD-FMK | 3 fold | 40% | 2 fold | 28% | 4.4 fold | 44% | 4.1 fold | 52% | 3.5 fold | 57% |  |  |  |  |  |  |  |  |  | 
B1 |  |  |  |  |  |  |  |  |  |  | 4.4 fold | 3 fold | 4.1 fold | 3.5 fold | 2 fold | 44% | 40% | 52% | 57% | 28%
